Reference: US4632932A, “Antimycotic agents” (Bayer Aktiengesellschaft, priority 1982, dated 1986)

Assays:
[1] = tested on: Trichophyton mentagr.; assay: Antimycotic in vitro activity, series dilution test (MIC), Trichophyton mentagr.; type: cell-based; set-up: unit not given here; conditions: Sabourand's milieu d'epreuve, 20° C., 96 hours
Method: (§1) Description of the experiment:
(§2) The in vitro tests were carried out in a series dilution test with germ inocula of an average of 5×10^4 germs/ml of substrate. The nutrient medium was (a) for dermatophytes and moulds: Sabourand's milieu d'epreuve and (b) for yeasts: meat extract/glucose broth.
(§3) The incubation temperature was 20° C. and the duration of incubation was 24 to 96 hours in the case of yeasts and 96 hours in the case of dermatophytes and moulds.

[2] = tested on: Aspergillus fumigatus; assay: Antimycotic in vitro activity, series dilution test (MIC), Aspergillus fumigatus; type: cell-based; set-up: unit not given here; conditions: Sabourand's milieu d'epreuve, 20° C., 96 hours
Method: as §1, §2, §3

[3] = tested on: Candida albicans; assay: Antimycotic in vitro activity, series dilution test (MIC), Candida albicans; type: cell-based; set-up: unit not given here; conditions: meat extract/glucose broth, 20° C., 24 to 96 hours
Method: as §1, §2, §3

[4] = tested on: Torulopsis glabrata; assay: Antimycotic in vitro activity, series dilution test (MIC), Torulopsis glabrata; type: cell-based; set-up: unit not given here; conditions: meat extract/glucose broth, 20° C., 24 to 96 hours
Method: as §1, §2, §3

[5] = tested on: Microsporum canis; assay: Antimycotic in vitro activity, series dilution test (MIC), Microsporum canis; type: cell-based; set-up: unit not given here; conditions: Sabourand's milieu d'epreuve, 20° C., 96 hours
Method: as §1, §2, §3

[6] = tested on: dermatophytes, moulds and yeasts; assay: Antimycotic in vitro activity, series dilution test, overall comparison; type: cell-based
Method: as §1, §2, §3

[7] = tested on: Candida cells; assay: Antimycotic in vivo activity (oral) in candidosis of mice; set-up: species or system Mice of the SPF-CF1 type; conditions: 50-100 mg/kg
Method: Description of the experiment
Mice of the SPF-CF1 type were infected intravenously with 1-2×10^6 logarithmically growing Candida cells, which are suspended in physiological sodium chloride solution. The animals were treated orally one hour before and seven hours after the infection, with, in each case, 50-100 mg/kg of body weight of the formulations.
Untreated animals died 3 to 6 days after infection. The survival rate on the 6th day after infection was about 5% in the case of untreated control animals.

[8] = tested on: trichophyton of mentagrophytes; assay: Antimicrobial in vivo activity (local) in the model of experimental guinea-pig trichophytosis; conditions: once daily, 15% strength solution

| Compound | antimycotic action in vitro compared with compounds (A), (B), (C) and (D) [6] | action compared with compounds (A), (B), (C) and (D) [7] | action (statement in words) [8] | also measured |
| --- | --- | --- | --- | --- |
| 1-(2-methylphenoxy)-3,3-dimethyl-2-(1,2,4-triazol-1-yl-methyl)-2-butanol [(C)] | – | – | – | MIC values [1]: 32; MIC values [2]: > 64; MIC values [3]: 32; MIC values [4]: > 64 |
| 1-(2-methylphenoxy)-3,3-dimethyl-2-(imidazol-1-yl-methyl)-2-butanol [(B)] | – | – | – | MIC values [5]: 4; MIC values [1]: 4; MIC values [2]: 32; MIC values [3]: 32; MIC values [4]: > 64 |
| CC(C)(C1OCCO1)C(O)(Cn1cncn1)c1ccc(Cl)cc1 (stereo not shown) [Example 3, 3-(1,3-dioxolan-2-yl)-2-(4-chlorophenyl)-3-methyl-1-(1,2,4-triazol-1-yl)-butan-2-ol] | better antimycotic action | better action | – | – |
| CC(C)(C1OCCO1)C(O)(CCc1ccc(Cl)cc1Cl)Cn1cncn1 (stereo not shown) [Example 5, 1-(2,4-dichlorophenyl)-4-(1,3-dioxolan-2-yl)-4-methyl-3-(1,2,4-triazol-1-yl-methyl)-pentan-3-ol naphthalene-1,5-disulphonate] | better antimycotic action | – | – | – |
| CC(C)(C1OCCO1)C(O)(CCc1ccc(Cl)cc1)Cn1cncn1 (stereo not shown) [Example 7] | better antimycotic action | better action | an action or a good action | – |
| CC1(C(O)(CCc2ccc(Cl)cc2Cl)Cn2cncn2)COCOC1 (stereo not shown) [Example 8] | better antimycotic action | better action | an action or a good action | – |
| CC1(C(O)(CCc2ccc(Cl)cc2)Cn2cncn2)COCOC1 (stereo not shown) [Example 9] | better antimycotic action | better action | an action or a good action | – |
| CC(C)(C1OCCO1)C(O)(C=Cc1ccc(Cl)cc1)Cn1cncn1 (stereo not shown) [Example 10] | better antimycotic action | better action | an action or a good action | – |
| CC(C)(C1OCCO1)C(O)(C=Cc1ccc(Cl)cc1Cl)Cn1cncn1 (stereo not shown) [Example 11] | better antimycotic action | – | – | – |
| CC1(C(O)(C=Cc2ccc(Cl)cc2)Cn2cncn2)COCOC1 (stereo not shown) [Example 12] | better antimycotic action | – | – | – |
| CC1(C(O)(C=Cc2ccc(Cl)cc2)Cn2cncn2)COCOC1 (stereo not shown) [Example 13] | better antimycotic action | – | – | – |
| CC(C)(C1OCCO1)C(O)(COc1ccc(-c2ccccc2)cc1)Cn1cncn1 (stereo not shown) [Example 14] | better antimycotic action | better action | an action or a good action | – |
| CC(C)(C1OCCO1)C(O)(COc1ccc(Cl)cc1)Cn1cncn1 (stereo not shown) [Example 15] | better antimycotic action | better action | – | – |
| CC1(C(O)(COc2ccc(Cl)cc2)Cn2cncn2)COCOC1 (stereo not shown) [Example 16] | better antimycotic action | better action | – | – |
| CC(C)(C1OCCO1)C(O)(CCc1ccc(Cl)cc1)Cn1ccnc1 (stereo not shown) [Example 19] | better antimycotic action | better action | an action or a good action | – |
| CC(C)(C1OCCO1)C(O)(CCc1ccc(Cl)cc1Cl)Cn1ccnc1 (stereo not shown) [Example 20] | better antimycotic action | better action | an action or a good action | – |
| CC1(C(O)(CCc2ccc(Cl)cc2Cl)Cn2ccnc2)COCOC1 (stereo not shown) [Example 21] | better antimycotic action | better action | an action or a good action | – |
| CC1(C(O)(CCc2ccc(Cl)cc2)Cn2ccnc2)COCOC1 (stereo not shown) [Example 22] | – | better action | an action or a good action | – |
| CC(C)(C1OCCO1)C(O)(C=Cc1ccc(Cl)cc1)Cn1ccnc1 (stereo not shown) [Example 23] | better antimycotic action | better action | an action or a good action | – |
| CC1(C(O)(COc2ccc(Cl)cc2)Cn2ccnc2)COCOC1 (stereo not shown) [Example 26] | – | better action | – | – |
